Data: paper PMC10552892, “Ebselen oxide and derivatives are new allosteric HER2 inhibitors for HER2‐positive cancers” (Molecular Oncology, 2023)
Where two headings read alike, the source gives them in different places.

Assays:
[1] = test system: MDA-MB-231; assay: MTT proliferation assay, MDA-MB-231; assay type: cell-based, human; details: 10 μM
Description: (§1) Fig. 2 Ebselen oxide inhibits HER2 activation, cell proliferation, and anchorage‐independent growth of HER2^+ breast cancer cells. […] Blot and quantification of a representative experiment are shown out of 4 (A), 5 (B), or 2 (C) independent experiments. (D–F) Proliferation curves of HER2‐positive (SKBR3, D or BT474, E) or HER2‐negative (MDA‐MB‐231, F) breast cancer cell lines treated with vehicle or 10 μM ebselen oxide assessed by MTT assay. […] (G–I) Anchorage‐independent growth of SKBR3 (G), BT474 (H), or MDA‐MB‐231 (I) cells treated with vehicle or 10 μM ebselen oxide. […] Scale bars are […].

[2] = target: T1, gD-HER2-WT (Homo sapiens, UniProt P04626); assay: Western blot of HBMECs overexpressing gD-HER2-WT; assay type: cell-based; details: 5 μM, 24 h
T1 construct: expressed in transfected cells; host or cells: HBMEC (human bone marrow endothelial cells)
Description: Human bone marrow endothelial cells (HBMECs) kindly provided by Dr. B. Weksler (Weill Medical College of Cornell University, NY) were cultured as described previously. The human breast cancer cell lines [SKBR3 (RRID:CVCL_0033), BT474 (RRID:CVCL_0179), and MDA‐MB‐231 (RRID:CVCL_0062)], the human gastric [NCI‐87 (RRID:CVCL_1603)] and ovarian [SKOV3 (RRID:CVCL_0532)] cancer cell lines were obtained from the American Type Culture Collection (Manassas, VA) and were maintained in DMEM containing 10% FBS. All cell lines were cultured under 5% CO2 at 37 °C. HBMECs were transfected using Amaxa Inc nucleofector system (Kit V and U015 program). FBS was decreased to 1% to analyze HER2 activation status and HER2‐dependent cell proliferation in SKOV3 as previously described. Periodic tests for Mycoplasma and authentication were performed using commercially available kits.

[3] = test system: HBMECs transfected with pRK5 empty vector; assay: Proliferation of HBMECs transfected with pRK5 empty vector (Incucyte); details: 5 μM, Incucyte 5 days
Description: 25.10^3 cells/96‐well transfected HBMECs or 9.10^3 cancer cells were seeded and monitored with an Incucyte S3 imaging system (Sartorius, Goettingen, Germany) using 10× objective every 2 h during 5 days. Confluency analyses were performed using the dedicated Incucyte analysis system.
Proliferation was assessed by Incucyte during 5 days.
Representative quantification of the proliferation (B) is shown where data are mean ± sem (n=8-12).
vehicle, 5-10 µM Ebselen oxide or 5 µM AG1478.

[4] = target: T2, HER2 (pY1248) in SKBR3 (Homo sapiens, UniProt P04626); assay: HER2 activation (pY1248-HER2) in SKBR3 cells, western/dot blot; assay type: cell-based; parameters: Inhibition of HER2 activation / HER2 inhibition, %: concentration or dose not given beside the values
T2 construct: host or cells: SKBR3

[5] = test system: BT474; assay: Incucyte proliferation, single agents and combinations, BT474; assay type: cell-based; details: Homo sapiens, BT-474, 96 h; read-out: Reduction/inhibition of cell proliferation
Description: (A–C) Proliferation curves of HER2‐positive (SKBR3, A; BT474, B; NCI‐N87, C) cancer cell lines treated or not with ebselen oxide (10 μM), lapatinib (10–1000 nM), or combination of these agents, as indicated. Proliferation was assessed overtime by Incucyte during 4 days. Data are mean ± SD (n = 8–12) of a representative experiment out of 4 (A), 3 (B), or 2 (C) independent experiments. […] Proliferation was assessed by Incucyte during 4 days. […] Scale bars are […].

[6] = test system: BT474; assay: MTT proliferation assay, BT474; assay type: cell-based, human; details: 10 μM
Description: as §1

T2 sequence (P04626 23-1255): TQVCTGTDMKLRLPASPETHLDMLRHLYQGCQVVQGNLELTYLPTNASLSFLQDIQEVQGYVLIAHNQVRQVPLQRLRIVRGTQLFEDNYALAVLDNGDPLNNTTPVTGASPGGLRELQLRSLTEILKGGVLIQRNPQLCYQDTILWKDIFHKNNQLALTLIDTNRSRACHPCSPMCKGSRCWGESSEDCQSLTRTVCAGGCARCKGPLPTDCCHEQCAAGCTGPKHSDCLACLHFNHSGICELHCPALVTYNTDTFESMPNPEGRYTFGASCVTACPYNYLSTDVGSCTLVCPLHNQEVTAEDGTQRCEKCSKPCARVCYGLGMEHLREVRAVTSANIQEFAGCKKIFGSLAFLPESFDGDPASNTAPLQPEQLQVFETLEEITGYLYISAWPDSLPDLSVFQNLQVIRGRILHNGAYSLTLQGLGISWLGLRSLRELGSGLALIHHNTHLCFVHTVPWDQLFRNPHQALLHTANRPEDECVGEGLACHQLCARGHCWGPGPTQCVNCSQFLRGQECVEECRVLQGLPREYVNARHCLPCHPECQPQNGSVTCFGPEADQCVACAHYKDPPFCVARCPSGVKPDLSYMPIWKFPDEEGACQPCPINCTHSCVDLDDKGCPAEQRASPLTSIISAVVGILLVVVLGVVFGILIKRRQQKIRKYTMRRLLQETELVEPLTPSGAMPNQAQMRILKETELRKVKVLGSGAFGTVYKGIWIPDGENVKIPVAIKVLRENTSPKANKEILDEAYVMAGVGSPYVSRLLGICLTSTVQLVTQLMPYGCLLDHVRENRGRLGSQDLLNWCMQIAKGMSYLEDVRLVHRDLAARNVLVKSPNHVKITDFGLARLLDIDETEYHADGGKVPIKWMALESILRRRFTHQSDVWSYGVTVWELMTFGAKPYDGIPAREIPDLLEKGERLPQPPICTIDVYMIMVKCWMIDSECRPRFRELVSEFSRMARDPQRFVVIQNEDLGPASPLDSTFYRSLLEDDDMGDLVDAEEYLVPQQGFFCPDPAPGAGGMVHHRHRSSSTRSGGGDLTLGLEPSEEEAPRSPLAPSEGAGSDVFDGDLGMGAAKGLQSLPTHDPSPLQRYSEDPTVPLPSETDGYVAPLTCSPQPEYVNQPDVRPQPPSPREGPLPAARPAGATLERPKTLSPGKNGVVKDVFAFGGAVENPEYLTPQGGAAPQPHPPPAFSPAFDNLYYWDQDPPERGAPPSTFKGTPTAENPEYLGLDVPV
T1 sequence (P04626 23-1255): as above

O=C1c2ccccc2[Se](=O)N1c1ccccc1 (stereo not drawn) [Ebselen oxide, ebselen oxide]
Effect on proliferation rate [1]: did not reduce | Reduction of phosphorylation level of gD-HER2-WT ([2]; HBMEC): 40% | Reduction in the activation of ERK protein kinase ([2]; HBMEC gD-HER2-WT): 65% | Effect on proliferation of cells transfected with pRK5 empty vector [3]: did not affect | Inhibition of HER2 activation ([4]; SKBR3, 24 h): 66% | EC50 ([4]; SKBR3, 24 h, read-out: EC50 (inhibition of HER2)): 23.9 µM | Inhibition of HER2 activation ([4]; SKBR3, 48 h): 64% | Effect on HER2 activation, single agents and combination ([4]; SKBR3, ebselen oxide 10 μM, lapatinib 10 nM): partially decreased | HER2 inhibition, % ([4]; Table 1, HER2+ breast cancer cells (ebselen oxide value equals SKBR3 48 h)): 64.2% | EC50 ([4]; Table 1, HER2+ breast cancer cells (ebselen oxide value equals SKBR3 48 h), read-out: EC50, μM (HER2 inhibition)): 26.9 µM | inhibition at 10 µM [5]: 30% | Reduction of proliferation rate [6]: 55%
